According to patent publication US20240391931A1 (Bristol-Myers Squibb Company, priority 2021, published 2024):

Assays:
HER2 WT = target: T1, HER2 WT (Homo sapiens, UniProt P04626); assay: Enzymatic assay HER2 WT (method a); assay type: biochemical; settings: [HER2 WT]=12.5 nM, [ATP]=25 μM, [Peptide 22]=1 μM
T1 construct: purchased ProQinase, Freiburg, Germany ERBB2 0108-0000-1
How it was run: (§1)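 Microfluidic mobility-shift kinase assay with Peptide 22 (1 μM) in HEPES pH 7.5, MnCl2, MgCl2, Tween 20, TCEP. HER2 WT 12.5 nM and HER2 YVMA 5 nM each used 25 μM ATP; EGFR WT 2 nM used 1 mM ATP. IC50 came from initial-velocity (0–3600 s) percent inhibition, fitted to a variable-slope model.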

HER2YVMA = HER2YVMA (Homo sapiens, UniProt P04626, INS775YVMA); assay: Enzymatic assay HER2YVMA (method b); assay type: biochemical; set-up: purchased Viva biotech, Shanghai, China custom purification; settings: [HER2YVMA]=5 nM, [ATP]=25 μM, [Peptide 22]=1 μM
How it was run: as §1

EGFR WT = target: T2, EGFR WT (Homo sapiens, UniProt P00533); assay: Enzymatic assay EGFR WT (method c); assay type: biochemical; settings: [EGFR WT]=2 nM, [ATP]=1 mM, [Peptide 22]=1 μM
T2 construct: purchased Thermo Fisher, Carlsbad, CA ERBB1 PR7295B
How it was run: as §1

EGFR = EGFR (Homo sapiens, UniProt P00533); assay: EGFR signaling (pEGFR Tyr1068/total EGFR MSD) in A431 cells; assay type: cell-based; set-up: endogenous in cells; host or cells: A431, N87; settings: for EC50: A431 cells, read-out: A431 pEGFR EC50; for Selectivity A431 EC50/BT474 EC50: ratio A431 pEGFR EC50 to BT474 pHER2 EC50; for Selectivity A431 EC50/HEKYVMA EC50: ratio A431 pEGFR EC50 to HEK YVMA pHER2 EC50
How it was run: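 Serum-starved A431 cells were pretreated 1.5 h in 1% FBS with compound (0.005–10 μM, 0.1% DMSO), then stimulated with 100 ng/mL human EGF for 10 min. Lysate pEGFR Tyr1068 was measured by MSD and normalized to total EGFR as % DMSO control; EC50 from variable-slope sigmoidal fit.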

T1 sequence (P04626 23-1255): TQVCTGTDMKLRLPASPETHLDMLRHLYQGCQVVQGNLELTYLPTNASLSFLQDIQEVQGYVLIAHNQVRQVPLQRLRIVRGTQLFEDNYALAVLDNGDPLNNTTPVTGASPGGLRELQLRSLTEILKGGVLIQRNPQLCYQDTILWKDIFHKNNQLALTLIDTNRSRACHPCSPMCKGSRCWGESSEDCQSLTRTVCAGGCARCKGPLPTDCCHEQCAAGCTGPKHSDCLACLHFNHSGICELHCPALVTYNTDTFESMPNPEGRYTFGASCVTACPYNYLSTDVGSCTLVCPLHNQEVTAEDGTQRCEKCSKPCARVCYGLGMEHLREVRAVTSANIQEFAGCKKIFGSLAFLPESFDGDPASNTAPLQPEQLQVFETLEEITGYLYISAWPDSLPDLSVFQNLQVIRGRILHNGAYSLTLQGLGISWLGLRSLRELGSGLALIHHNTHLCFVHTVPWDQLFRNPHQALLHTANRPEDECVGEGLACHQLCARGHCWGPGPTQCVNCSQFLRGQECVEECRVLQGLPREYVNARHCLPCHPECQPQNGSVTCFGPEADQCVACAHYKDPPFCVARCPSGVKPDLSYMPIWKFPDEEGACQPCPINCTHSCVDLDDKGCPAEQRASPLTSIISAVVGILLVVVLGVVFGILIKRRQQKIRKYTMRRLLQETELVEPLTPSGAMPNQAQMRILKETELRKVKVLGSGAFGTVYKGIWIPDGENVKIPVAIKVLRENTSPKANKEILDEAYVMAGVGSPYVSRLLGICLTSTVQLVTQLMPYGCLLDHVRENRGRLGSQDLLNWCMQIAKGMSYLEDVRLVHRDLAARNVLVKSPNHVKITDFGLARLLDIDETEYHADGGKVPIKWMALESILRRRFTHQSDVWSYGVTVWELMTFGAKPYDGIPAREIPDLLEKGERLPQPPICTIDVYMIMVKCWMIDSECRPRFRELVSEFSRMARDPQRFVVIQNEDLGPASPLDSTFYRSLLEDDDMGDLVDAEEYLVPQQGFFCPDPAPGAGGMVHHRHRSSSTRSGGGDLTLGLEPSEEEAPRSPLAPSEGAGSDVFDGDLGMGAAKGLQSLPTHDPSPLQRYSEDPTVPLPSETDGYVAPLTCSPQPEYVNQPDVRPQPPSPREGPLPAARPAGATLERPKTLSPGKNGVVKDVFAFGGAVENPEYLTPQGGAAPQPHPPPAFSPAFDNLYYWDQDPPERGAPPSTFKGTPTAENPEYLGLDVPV
T2 sequence (P00533 25-1210): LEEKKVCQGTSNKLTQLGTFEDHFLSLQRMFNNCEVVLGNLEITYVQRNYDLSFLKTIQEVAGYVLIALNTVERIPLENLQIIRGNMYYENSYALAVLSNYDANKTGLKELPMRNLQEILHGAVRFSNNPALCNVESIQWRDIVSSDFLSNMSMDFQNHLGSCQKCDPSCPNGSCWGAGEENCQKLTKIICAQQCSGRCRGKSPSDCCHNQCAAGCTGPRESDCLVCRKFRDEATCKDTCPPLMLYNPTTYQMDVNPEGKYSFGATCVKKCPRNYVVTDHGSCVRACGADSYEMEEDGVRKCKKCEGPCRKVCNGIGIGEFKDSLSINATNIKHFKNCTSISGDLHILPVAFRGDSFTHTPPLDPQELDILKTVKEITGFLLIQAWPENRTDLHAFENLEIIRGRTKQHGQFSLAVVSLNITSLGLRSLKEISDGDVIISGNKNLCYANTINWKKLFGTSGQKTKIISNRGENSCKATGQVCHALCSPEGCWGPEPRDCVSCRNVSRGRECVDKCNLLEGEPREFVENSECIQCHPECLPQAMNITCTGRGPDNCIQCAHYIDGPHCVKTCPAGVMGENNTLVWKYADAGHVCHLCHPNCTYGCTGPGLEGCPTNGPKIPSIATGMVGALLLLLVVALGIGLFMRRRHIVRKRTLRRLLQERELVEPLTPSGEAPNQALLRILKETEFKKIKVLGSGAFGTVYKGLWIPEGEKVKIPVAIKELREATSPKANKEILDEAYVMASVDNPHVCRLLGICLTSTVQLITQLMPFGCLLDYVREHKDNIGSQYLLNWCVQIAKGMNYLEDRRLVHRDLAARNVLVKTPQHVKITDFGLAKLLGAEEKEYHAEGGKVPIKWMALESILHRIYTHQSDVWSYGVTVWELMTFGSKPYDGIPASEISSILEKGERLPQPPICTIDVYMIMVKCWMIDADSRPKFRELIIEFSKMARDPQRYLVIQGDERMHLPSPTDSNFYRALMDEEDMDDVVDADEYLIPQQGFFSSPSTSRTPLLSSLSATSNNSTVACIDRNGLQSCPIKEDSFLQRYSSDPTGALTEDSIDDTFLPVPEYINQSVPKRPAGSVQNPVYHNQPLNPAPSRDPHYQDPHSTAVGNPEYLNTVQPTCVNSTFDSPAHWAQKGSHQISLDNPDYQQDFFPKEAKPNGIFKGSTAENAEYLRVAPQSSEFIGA
Chain of EGFR (P00533 25-1210): as above
Chain of HER2YVMA (P04626 with tags, fused parts or gaps INS775YVMA): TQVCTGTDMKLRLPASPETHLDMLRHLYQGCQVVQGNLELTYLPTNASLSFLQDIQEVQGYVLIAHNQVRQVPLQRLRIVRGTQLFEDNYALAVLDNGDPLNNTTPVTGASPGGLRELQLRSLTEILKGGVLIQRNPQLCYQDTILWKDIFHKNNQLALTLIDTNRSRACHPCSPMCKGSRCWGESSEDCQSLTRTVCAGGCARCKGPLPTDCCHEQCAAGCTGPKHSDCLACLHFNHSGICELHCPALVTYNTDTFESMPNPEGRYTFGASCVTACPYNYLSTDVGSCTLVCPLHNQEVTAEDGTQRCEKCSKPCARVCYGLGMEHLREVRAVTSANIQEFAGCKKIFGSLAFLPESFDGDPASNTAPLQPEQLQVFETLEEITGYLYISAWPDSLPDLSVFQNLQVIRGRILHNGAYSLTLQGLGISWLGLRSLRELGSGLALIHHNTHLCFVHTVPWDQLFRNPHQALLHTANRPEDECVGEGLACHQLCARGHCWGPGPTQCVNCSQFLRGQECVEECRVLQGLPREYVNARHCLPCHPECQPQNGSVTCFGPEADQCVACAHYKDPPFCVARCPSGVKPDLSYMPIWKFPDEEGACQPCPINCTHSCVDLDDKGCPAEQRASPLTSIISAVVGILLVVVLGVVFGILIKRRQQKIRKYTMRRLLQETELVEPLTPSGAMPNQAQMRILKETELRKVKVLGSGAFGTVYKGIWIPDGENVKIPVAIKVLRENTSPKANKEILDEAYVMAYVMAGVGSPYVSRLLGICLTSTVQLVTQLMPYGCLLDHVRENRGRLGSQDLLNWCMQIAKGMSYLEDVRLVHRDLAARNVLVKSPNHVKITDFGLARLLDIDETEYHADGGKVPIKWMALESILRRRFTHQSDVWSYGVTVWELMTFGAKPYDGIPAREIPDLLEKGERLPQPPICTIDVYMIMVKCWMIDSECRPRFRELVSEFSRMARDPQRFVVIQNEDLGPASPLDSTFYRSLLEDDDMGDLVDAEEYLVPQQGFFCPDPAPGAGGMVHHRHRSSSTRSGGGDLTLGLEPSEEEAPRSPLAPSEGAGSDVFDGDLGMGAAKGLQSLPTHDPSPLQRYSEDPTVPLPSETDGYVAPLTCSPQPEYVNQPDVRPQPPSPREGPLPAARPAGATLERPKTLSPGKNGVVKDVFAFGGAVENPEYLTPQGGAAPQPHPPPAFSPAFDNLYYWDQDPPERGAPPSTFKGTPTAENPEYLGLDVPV

| Compound | IC50 (HER2 WT) [nM] | IC50 (HER2YVMA) [nM] | IC50 (EGFR WT) [µM] | EC50 (EGFR) [nM] | Selectivity A431 EC50/BT474 EC50 (EGFR) | Selectivity A431 EC50/HEKYVMA EC50 (EGFR) |
| --- | --- | --- | --- | --- | --- | --- |
| Cc1ccc(Oc2ccc(Nc3ncnc4sc5c(c34)CCCN(C(=O)/C=C/CN(C)C)C5)cc2C)cn1 [Compound 101, (E)-4-(Dimethylamino)-1-(4-((3-methyl-4-((6-methylpyridin-3-yl)oxy)phenyl)amino)-6,7-dihydro-5H-pyrimido[5′,4′:4,5]thieno[2,3-c]azepin-8(9H)-yl)but-2-en-1-one] | < 100 | < 100 | > 10 | 100 to 1000 | C (C: ≥ 10 and < 20) | C (C: ≥ 10 and < 20) |
| C=CC(=O)N1CCc2[nH]c3ncnc(Nc4ccc(Oc5ccc6ncnn6c5)c(C)c4)c3c2C1 [Compound 102, 1-(4-((4-([1,2,4]triazolo[1,5-a]pyridin-6-yloxy)-3-methylphenyl)amino)-5,7,8,9-tetrahydro-6H-pyrido[3′,4′:4,5]pyrrolo[2,3-d]pyrimidin-6-yl)prop-2-en-1-one] | < 100 | < 100 | > 10 | 1000 to 10000 | C (C: ≥ 10 and < 20) | C (C: ≥ 10 and < 20) |
| Cc1cc(Nc2ncnc3sc4c(c23)CN(C(=O)/C=C/CN(C)C)CC4)ccc1Oc1ccc2ncnn2c1 [Compound 103, (E)-1-(4-((4-([1,2,4]triazolo[1,5-a]pyridin-6-yloxy)-3-methylphenyl)amino)-7,8-dihydropyrido[3′,4′:4,5]thieno[2,3-d]pyrimidin-6(5H)-yl)-4-(dimethylamino)but-2-en-1-one] | 100 to 1000 | < 100 | > 10 | 100 to 1000 | B (B: ≥ 20 and < 100) | B (B: ≥ 20 and < 100) |
| Cc1cc(Nc2ncnc3sc4c(c23)CCN(C(=O)/C=C/CN(C)C)C4)ccc1Oc1ccc2nonc2c1 [Compound 104, (E)-1-(4-((4-(Benzo[c][1,2,5]oxadiazol-5-yloxy)-3-methylphenyl)amino)-5,6-dihydropyrido[4′,3′:4,5]thieno[2,3-d]pyrimidin-7(8H)-yl)-4-(dimethylamino)but-2-en-1-one] | < 100 | < 100 | > 10 | < 100 | D (D: ≥ 5 and < 10) | D (D: ≥ 5 and < 10) |
